# In patent US20080249130A1, “Gut microsomal triglyceride transport protein inhibitors” (Sirtris Pharmaceuticals, Inc., priority 2007, published 2008):
# pIC50: −log10 of the molar value.
# System: secretion of ApoB by HepG2 cells
# Experiment: ApoB secretion inhibition assay in HepG2 cells (ApoB ELISA)
# Assay type: cell-based, human
# Conditions: Homo sapiens, HepG2, Table 6, assay of Example 2; read-out: IC50 ApoB Assay
# Experimental: The ability of the compounds of the present invention to inhibit the secretion of ApoB can be determined using the following cell-based assay, which measures the secretion of ApoB by HepG2 cells. ApoB has two possible metabolic fates: entrance into the lipoprotein assembly pathway within the lumen of the endoplasmic reticulum (ER), or degradation in the cytoplasm by the ubiquitin-dependent proteasome. The destiny of ApoB is determined by the relative availability of individual lipids, which is controlled by MTP (Davis, Biochim. Biophys. Acta, 1999, 1440, 1-31).
# HepG2 cells (ATCC, HB-8065) are seeded in 96-well plates in DMEM with 10% FBS+pen/strep at a density of 1×10^5 cells/well (100 μl /well). Twenty-four hours after seeding, the plate is aspirated and the media changed to DMEM with 1% BSA and pen/strep, and the cells are serum-starved for 24 hours. After 24 hour serum-starvation, the plate is aspirated again and the cells are then treated for 24 hours with or without compound in DMEM with 1% BSA, 0.3 mM OA (OA complexed to BSA at a 2:1 ratio) and pen/strep. The final concentration of DMSO in the assay (from compound and control) is 0.1%. After 24 hour treatment, conditioned media is collected in an empty 96-well plate.
# Cellular viability is measured using the cell permeable dye, AlamarBlue™. This dye undergoes electron reduction in viable cells but not dead cells. The reduced dye product gives a fluorescent signal which can be monitored with a fluorescence plate reader (excitation 545 nm and emission 575 nm). The amount of fluorescence generated in a given well is proportional to the number of viable cells. After collection, the 96-well plate is re-fed with 100 μl media (DMEM with 10% FBS) and 10 μl Alamar Blue™ per well, incubated for 2 hours and then read in a fluorescence plate reader.
# ApoB secretion from HepG2 cells is quantitated by testing the conditioned media at […] using an ApoB ELISA kit (ALerCHEK) according to the manufacturer's instructions. The ELISA assay for ApoB is performed as follows: a polyclonal antibody against human ApoB (Chemicon) is diluted 1:1000 in carbonate-bicarbonate buffer and 100 μl are added to each well of a 96-well plate (NUNC). After 5 hours incubation at room temperature, the antibody solution is removed and wells are washed four times with PBS/0.05% TweenD 20 (Cayman Chemical Co.). Non-specific sites on the plastic plate are blocked by incubating wells for 1 to 1.5 hours in a solution of 0.5% BSA and 0.1% TweenD 20 made in PBS. One hundred microliters of a 1:20 dilution of growth medium from the HepG2 cells (made in 0.004% TweenD 20/1% BSA in PBS) is added to each well and incubated for 3 hours at room temperature. Wells are aspirated and washed four times (0.05% TweenD 20 in PBS) prior to adding 100 μl of a 1:1000 dilution (5 μg/ml) of the secondary antibody, mouse anti-human ApoB (Chemicon). After 2 hours incubation at room temperature, this solution is aspirated and the wells are again washed 4 times as above. One hundred microliters of peroxidase-conjugated affinity purified goat anti-mouse IgG (H+L) (Jackson ImmunoResearch Laboratories) (1:10,000 dilution in PBS/1% BSA/0.1% TweenD 20) is then added to each well and incubated for 1 hour at room temperature. After aspirating, the wells are washed 4 times as above and 50 μl of 1-step Ultra TMB ELISA reagent (Pierce) is added to each well and incubated for 5 minutes. The reaction is stopped by the addition of 50 μl of 2 NH2SO4 and absorbance of each well is read at 450 nm.
row,pIC50,SMILES
1,8.28,Cc1cccc(C(=O)NCC23CCC(C(=O)N[C@H](C(=O)N4CCCC4)c4ccccc4)(CC2)CC3)c1-c1ccc(C(C)(C)C)cc1 [Compound 65]
2,8.05,Cc1cccc(C(=O)NCC23CCC(C(=O)N[C@H](C(=O)NCC4CC4)c4ccccc4)(CC2)CC3)c1-c1ccc(C(C)(C)C)cc1 [Compound 69]
3,7.86,Cc1cccc(C(=O)NCC23CCC(C(=O)N[C@H](C(=O)N(C)C(C)C)c4ccccc4)(CC2)CC3)c1-c1ccc(C(C)(C)C)cc1 [Compound 70]
4,7.85,Cc1cccc(C(=O)NCC23CCC(C(=O)N[C@H](C(=O)NCC(C)C)c4ccccc4)(CC2)CC3)c1-c1ccc(C(C)(C)C)cc1 [Compound 71]
5,7.66,Cc1cccc(C(=O)NCC23CCC(C(=O)N[C@H](C(=O)N(C)CC(C)C)c4ccccc4)(CC2)CC3)c1-c1ccc(C(C)(C)C)cc1 [Compound 72]
6,7.70,CCCCN(C)C(=O)[C@@H](NC(=O)C12CCC(CNC(=O)c3cccc(C)c3-c3ccc(C(C)(C)C)cc3)(CC1)CC2)c1ccccc1 [Compound 74]
7,8.55,COc1cccc(C(=O)Nc2ccc3nc(C(=O)N[C@H](C(=O)N(C)Cc4ccc(F)cc4)c4ccccc4)sc3c2)c1-c1ccc(C(C)C)cc1 [Compound 76]
8,8.80,COc1cccc(C(=O)Nc2ccc3nc(C(=O)N[C@H](C(=O)N(C)Cc4ccc(F)cc4)c4ccccc4)sc3c2)c1-c1ccc(C(F)(F)F)cc1 [Compound 80]
9,7.21,CC(C)(C)c1ccc(-c2ccccc2C(=O)Nc2nc(-c3ccc(C(=O)N[C@H](C(=O)NCC4CC4)c4ccccc4)cc3)cs2)cc1 [Compound 81]
10,6.71,CC(C)CNC(=O)[C@@H](NC(=O)c1ccc(-c2csc(NC(=O)c3ccccc3-c3ccc(C(C)(C)C)cc3)n2)cc1)c1ccccc1 [Compound 82]
11,6.47,Cc1cccc(C(=O)Nc2nc(-c3ccc(C(=O)N[C@H](C(=O)N(C)CC(C)C)c4ccccc4)cc3)cs2)c1-c1ccc(C(C)(C)C)cc1 [Compound 87]
12,7.09,CCCN(C)C(=O)[C@@H](NC(=O)c1ccc(-c2csc(NC(=O)c3cccc(C)c3-c3ccc(C(C)(C)C)cc3)n2)cc1)c1ccccc1 [Compound 88]
13,8.06,Cc1cccc(C(=O)Nc2nc(-c3ccc(C(=O)N[C@H](C(=O)N4CCCC4)c4ccccc4)cc3)cs2)c1-c1ccc(C(C)C)cc1 [Compound 89]
14,6.94,Cc1cccc(C(=O)Nc2nc(-c3ccc(C(=O)N[C@H](C(=O)N(C)CC(C)C)c4ccccc4)cc3)cs2)c1-c1ccc(C(C)C)cc1 [Compound 90]
15,6.38,CC(C)CN(C)C(=O)[C@@H](NC(=O)c1ccc(-c2csc(NC(=O)c3ccccc3-c3ccc(C(C)(C)C)cc3)n2)cc1)c1ccccc1 [Compound 91]
16,6.96,CCCN(C)C(=O)[C@@H](NC(=O)c1ccc(-c2csc(NC(=O)c3ccccc3-c3ccc(C(C)(C)C)cc3)n2)cc1)c1ccccc1 [Compound 92]
17,7.05,CC(C)N(C)C(=O)[C@@H](NC(=O)c1ccc(-c2csc(NC(=O)c3ccccc3-c3ccc(C(C)(C)C)cc3)n2)cc1)c1ccccc1 [Compound 93]
18,7.73,CC(C)c1ccc(-c2ccccc2C(=O)Nc2nc(-c3ccc(C(=O)N[C@H](C(=O)N4CCCC4)c4ccccc4)cc3)cs2)cc1 [Compound 94]
19,6.64,CCCN(C)C(=O)[C@@H](NC(=O)c1ccc(-c2csc(NC(=O)c3ccccc3-c3ccc(C(C)C)cc3)n2)cc1)c1ccccc1 [Compound 95]
20,7.96,Cc1cccc(C(=O)NCC23CCC(C(=O)NC(C(=O)N4CCCC4)c4ccccc4)(CC2)CC3)c1-c1ccc(C(C)C)cc1 (stereo not drawn) [Compound 96]

row,pIC50,SMILES
1,6.84,CCCN(C)C(=O)[C@@H](NC(=O)c1ccc(-c2csc(NC(=O)c3cccc(C)c3-c3ccc(C(C)C)cc3)n2)cc1)c1ccccc1 [Compound 97]
2,7.30,Cc1cccc(C(=O)Nc2nc(-c3ccc(C(=O)N[C@H](C(=O)N(C)C(C)C)c4ccccc4)cc3)cs2)c1-c1ccc(C(C)C)cc1 [Compound 98]
3,6.92,CC(C)c1ccc(-c2ccccc2C(=O)Nc2nc(-c3ccc(C(=O)N[C@H](C(=O)N(C)C(C)C)c4ccccc4)cc3)cs2)cc1 [Compound 99]
4,6.95,CC(C)(C)c1csc(-c2ccccc2C(=O)NCC23CCC(C(=O)N[C@H](C(=O)N4CCCC4)c4ccccc4)(CC2)CC3)n1 [Compound 100]
5,7.93,CCCCN(C)C(=O)[C@@H](NC(=O)C12CCC(NC(=O)c3ccccc3-c3ccc(C(C)(C)C)cc3)(CC1)CC2)c1ccccc1 [Compound 101]
6,7.47,CC(C)CN(C)C(=O)[C@@H](NC(=O)C12CCC(NC(=O)c3ccccc3-c3ccc(C(C)(C)C)cc3)(CC1)CC2)c1ccccc1 [Compound 102]
7,7.58,CCCCN(C)C(=O)[C@@H](NC(=O)C12CCC(NC(=O)c3ccccc3-c3ccc(C(C)C)cc3)(CC1)CC2)c1ccccc1 [Compound 103]
8,8.46,CC(C)c1ccc(-c2ccccc2C(=O)NC23CCC(C(=O)N[C@H](C(=O)N4CCCC4)c4ccccc4)(CC2)CC3)cc1 [Compound 104]
9,7.87,CC(C)c1ccc(-c2ccccc2C(=O)NC23CCC(C(=O)N[C@H](C(=O)N(C)Cc4ccc(F)cc4)c4ccccc4)(CC2)CC3)cc1 [Compound 105]
10,7.40,CC(C)CN(C)C(=O)[C@@H](NC(=O)C12CCC(NC(=O)c3ccccc3-c3ccc(C(C)C)cc3)(CC1)CC2)c1ccccc1 [Compound 106]
11,8.77,Cc1cccc(C(=O)NC23CCC(C(=O)N[C@H](C(=O)N4CCCC4)c4ccccc4)(CC2)CC3)c1-c1ccc(C(C)(C)C)cc1 [Compound 107]
12,8.92,Cc1cccc(C(=O)NC23CCC(C(=O)N[C@H](C(=O)N(C)Cc4ccc(F)cc4)c4ccccc4)(CC2)CC3)c1-c1ccc(C(C)(C)C)cc1 [Compound 108]
13,8.09,COc1cccc(C(=O)NC23CCC(C(=O)N[C@H](C(=O)N4CCCC4)c4ccccc4)(CC2)CC3)c1-c1ccc(C(C)(C)C)cc1 [Compound 109]
14,7.84,COc1cccc(C(=O)NC23CCC(C(=O)N[C@H](C(=O)N(C)Cc4ccc(F)cc4)c4ccccc4)(CC2)CC3)c1-c1ccc(C(C)(C)C)cc1 [Compound 110]
15,6.96,COc1cccc(C(=O)NC23CCC(C(=O)N[C@H](C(=O)N(C)Cc4ccc(F)cc4)c4ccccc4)(CC2)CC3)c1-c1ccc(C(C)C)cc1 [Compound 111]
16,8.36,Cc1cccc(C(=O)NC23CCC(C(=O)N[C@H](C(=O)N4CCCC4)c4ccccc4)(CC2)CC3)c1-c1ccc(C(C)C)cc1 [Compound 113]
17,8.46,Cc1cccc(C(=O)NC23CCC(C(=O)N[C@H](C(=O)N(C)Cc4ccc(F)cc4)c4ccccc4)(CC2)CC3)c1-c1ccc(C(C)C)cc1 [Compound 114]
18,7.00,CCCCN(C)C(=O)[C@@H](NC(=O)C12CCC(NC(=O)c3cccc(OC)c3-c3ccc(C(C)C)cc3)(CC1)CC2)c1ccccc1 [Compound 115]
19,6.61,COc1cccc(C(=O)NC23CCC(C(=O)N[C@H](C(=O)N(C)CC(C)C)c4ccccc4)(CC2)CC3)c1-c1ccc(C(C)C)cc1 [Compound 116]

# Same assay, conditions: Homo sapiens; Table 1, HepG2 cells; read-out: gMTP IC50 ApoB Secretion Assay (Example 2)
row,SMILES,pIC50
1,"CN(Cc1ccc(F)cc1)C(=O)[C@@H](NC(=O)c1ccc2nc(NC(=O)c3ccccc3-c3ccc(C(C)(C)C)cc3)ccc2c1)c1ccccc1 [compound 3, reference compound]",8.80

# Same assay, conditions: Table 6, assay of Example 2; read-out: IC50 ApoB Assay
row,pIC50,SMILES
1,8.35,Cc1cccc(C(=O)NCC23CCC(C(=O)N[C@H](C(=O)N4CCCC4)c4ccccc4)(CC2)CC3)c1-c1ccc(C(C)(C)C)cc1 [Compound 65]
2,8.82,Cc1cccc(C(=O)NC23CCC(C(=O)N[C@H](C(=O)N4CCCC4)c4ccccc4)(CC2)CC3)c1-c1ccc(C(C)(C)C)cc1 [Compound 107]
